Results published in US6225478A, “Iridoid derivatives and neovascularization inhibitors containing the same as active ingredient” (Tsumura & Co., priority 1999, dated 2001).

System: human umbilical-vein endothelial cells (HUVEC)
Experiment: Tube Formation Assay (TFA) Test, HUVEC in collagen gel
Format: cell-based
Details: Homo sapiens, HUVEC, Tables 75-83; 0.32 mM sample solution; method as for Compounds 1 through 60; read-out: TFA Inhibition rate (%)
Method in brief: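 Inhibition rate (%) of tube formation is computed from tube lengths against control (+) and control (-), measured after 20 h at 37 °C in M-199 with 20% FCS, 30 ng/ml b-FGF and 0.1 μM PMA. Samples were applied to HUVEC on collagen and covered by a second collagen layer (double-layer gel).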

Compared with `CCCCCCC1CC[C@@H]2C(C(=O)OC)=CO[C@@H](OC(=O)NC)[C@H]12` (some centres unmarked) [I-300], `CCCCCCNC(=O)O[C@@H]1OC=C(C(=O)OC)[C@H]2CC[C@H](C)[C@@H]12` [I-175] is lower in inhibition at 320 µM (stock): 14.6% for the first, 7.5% for the second.

Going from `COC(=O)C1=CO[C@@H](OC(=O)NCCc2cccs2)[C@@H]2C(C)=CC[C@H]12` [I-92] to `COC(=O)C1=CO[C@@H](OC(=O)NCc2ccccn2)[C@@H]2C(C)=CC[C@H]12` [I-75], the inhibition at 320 µM (stock) falls from 15.2% to 4.3%.

Compared with `COC(=O)C1=CO[C@@H](OC(=O)NCc2ccco2)[C@H]2[C@@H]1CC[C@@H]2C` [I-215], `COC(=O)C1=CO[C@@H](OC(=O)NCC#N)[C@H]2[C@@H]1CC[C@@H]2C` [I-176] is lower in inhibition at 320 µM (stock): 8.1% for the first, 2.2% for the second.

Compared with `COC(=O)C1=CO[C@@H](OC(=O)N(C)Cc2ccccc2)[C@@H]2C(C)=CC[C@H]12` [I-81], `COC(=O)C1=CO[C@@H](OC(=O)NCc2ccccc2)[C@@H]2C(C)=CC[C@H]12` [I-80] is lower in inhibition at 320 µM (stock): 8.3% for the first, 8.1% for the second.

First: CCOc1ccccc1N1CCN(C(=O)O[C@@H]2OC=C(C(=O)OC)[C@H]3CC=C(C)[C@@H]23)CC1 [I-141]
Second: COC(=O)C1=CO[C@@H](OC(=O)NCC2CCCCC2)[C@@H]2C(C)=CC[C@H]12 [I-88]
The inhibition at 320 µM (stock) of the first is higher: 23.1% for the first, 4.7% for the second.

First: COC(=O)C1=COC[C@H]2[C@@H]1C[C@@H]1O[C@@]12COC(=O)NCCCl [I-291]
Second: COC(=O)C1=COC[C@@H]2C(COC(=O)NCCCl)=CC[C@H]12 [I-296]
The inhibition at 320 µM (stock) of the first is higher: 44.5% for the first, 21.3% for the second.

First: COC(=O)C1=COC[C@@H]2C(CSc3nc4ccccc4s3)=CC[C@H]12 [I-292]
Second: COC(=O)C1=CO[C@@H](OC(=O)NCCc2c[nH]c3ccccc23)[C@H]2[C@@H]1CC[C@@H]2C [I-220]
The inhibition at 320 µM (stock) of the first is higher: 23.5% for the first, 7.4% for the second.

Going from `COC(=O)C1=CO[C@@H](OC(=O)NCCc2ccc(O)cc2)[C@H]2[C@@H]1CC[C@@H]2C` [I-206] to `COC(=O)C1=CO[C@@H](OC(=O)NCCc2cccc(F)c2)[C@H]2[C@@H]1CC[C@@H]2C` [I-205], the inhibition at 320 µM (stock) falls from 14.2% to 2%.

First: CNC(=O)O[C@@H]1OC=C(C(N)=O)[C@H]2C[C@@H]3O[C@]3(C)[C@@H]12 [I-61]
Second: COC(=O)C1=COC[C@H]2[C@@H]1C[C@@H]1O[C@@]12C [I-303]
The inhibition at 320 µM (stock) of the first is lower: 18.9% for the first, 30.6% for the second.

Compared with `CNC(=O)O[C@@H]1OC=C(C)[C@H]2CC[C@H](C)[C@@H]12` [I-278], `COC(=O)C1=CO[C@@H](OC(=O)Nc2ccc(C)cc2)[C@H]2[C@@H]1CC[C@@H]2C` [I-270] is lower in inhibition at 320 µM (stock): 20.2% for the first, 5.9% for the second.

Compared with `CCCCCCC1=CC[C@@H]2C(C(=O)OC)=CO[C@@H](OC(=O)NC)[C@H]12` [I-299], `COC(=O)C1=CO[C@@H](OC(=O)NC(CO)CO)[C@@H]2C(C)=CC[C@H]12` [I-147] is higher in inhibition at 320 µM (stock): 8.8% for the first, 10.3% for the second.

Going from `COC(=O)C1=CO[C@@H](OC(=O)NCc2ccc3c(c2)OCO3)[C@H]2[C@@H]1CC[C@@H]2C` [I-234] to `COC(=O)C1=CO[C@@H](OC(=O)NCCc2ccccc2F)[C@H]2[C@@H]1CC[C@@H]2C` [I-185], the inhibition at 320 µM (stock) falls from 7.3% to 4.9%.

Compared with `COC(=O)C1=CO[C@@H](OC(=O)N(C)CCc2ccc(OC)c(OC)c2)[C@@H]2C(C)=CC[C@H]12` [I-122], `COC(=O)C1=CO[C@@H](OC(=O)NCc2ccc(F)cc2F)[C@@H]2C(C)=CC[C@H]12` [I-77] is lower in inhibition at 320 µM (stock): 9.1% for the first, 7.2% for the second.

Compared with `COC(=O)C1=CO[C@@H](OC(=O)NCCCc2ccccc2)[C@H]2[C@@H]1CC[C@@H]2C` [I-217], `COC(=O)C1=CO[C@@H](OC(=O)Nc2ccc(OC)cc2)[C@H]2[C@@H]1CC[C@@H]2C` [I-263] is lower in inhibition at 320 µM (stock): 7.2% for the first, 5.5% for the second.

System: HUFEC
Experiment: Cell Migration Assay (CMA) Test, inhibitory rate with control (-) correction
Format: cell-based, human
Details: Homo sapiens, 24 h, 125 μl of 0.32 mM sample solution in 4.0 ml medium, 80% or more = remarkable
Method in brief: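 Confluent HUFEC monolayers were scratch-wounded, then cultured 24 h at 37 °C, 5% CO2 in M199 (2+) medium with compound added as 125 μl of a 0.32 mM solution (3.2% DMSO) per 4 ml. Giemsa-stained cells migrating into 1 mm×1 mm blocks counted; inhibition % calculated relative to control (+) and control (−) wells.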

First: CCCCCCC1CC[C@@H]2C(C(=O)OC)=CO[C@@H](OC(=O)NC)[C@H]12 (some centres unmarked) [I-300]
Second: CCCCCCNC(=O)O[C@@H]1OC=C(C(=O)OC)[C@H]2CC[C@H](C)[C@@H]12 [I-175]
The inhibition at 320 µM (stock) of the first is lower: 8% for the first, 19.5% for the second.

First: COC(=O)C1=CO[C@@H](OC(=O)NCCc2cccs2)[C@@H]2C(C)=CC[C@H]12 [I-92]
Second: COC(=O)C1=CO[C@@H](OC(=O)NCc2ccccn2)[C@@H]2C(C)=CC[C@H]12 [I-75]
The inhibition at 320 µM (stock) of the first is lower: 8.1% for the first, 11.7% for the second.

Compared with `COC(=O)C1=CO[C@@H](OC(=O)NCc2ccco2)[C@H]2[C@@H]1CC[C@@H]2C` [I-215], `COC(=O)C1=CO[C@@H](OC(=O)NCC#N)[C@H]2[C@@H]1CC[C@@H]2C` [I-176] is lower in inhibition at 320 µM (stock): 21.5% for the first, 11.7% for the second.

First: COC(=O)C1=CO[C@@H](OC(=O)N(C)Cc2ccccc2)[C@@H]2C(C)=CC[C@H]12 [I-81]
Second: COC(=O)C1=CO[C@@H](OC(=O)NCc2ccccc2)[C@@H]2C(C)=CC[C@H]12 [I-80]
The inhibition at 320 µM (stock) of the first is higher: 31.2% for the first, 5.9% for the second.

First: CCOc1ccccc1N1CCN(C(=O)O[C@@H]2OC=C(C(=O)OC)[C@H]3CC=C(C)[C@@H]23)CC1 [I-141]
Second: COC(=O)C1=CO[C@@H](OC(=O)NCC2CCCCC2)[C@@H]2C(C)=CC[C@H]12 [I-88]
The inhibition at 320 µM (stock) of the first is lower: 12.5% for the first, 16.5% for the second.

Going from `COC(=O)C1=COC[C@H]2[C@@H]1C[C@@H]1O[C@@]12COC(=O)NCCCl` [I-291] to `COC(=O)C1=COC[C@@H]2C(COC(=O)NCCCl)=CC[C@H]12` [I-296], the inhibition at 320 µM (stock) rises from 7% to 19.9%.

Going from `COC(=O)C1=COC[C@@H]2C(CSc3nc4ccccc4s3)=CC[C@H]12` [I-292] to `COC(=O)C1=CO[C@@H](OC(=O)NCCc2c[nH]c3ccccc23)[C@H]2[C@@H]1CC[C@@H]2C` [I-220], the inhibition at 320 µM (stock) falls from 57.9% to 25%.

Compared with `COC(=O)C1=CO[C@@H](OC(=O)NCCc2ccc(O)cc2)[C@H]2[C@@H]1CC[C@@H]2C` [I-206], `COC(=O)C1=CO[C@@H](OC(=O)NCCc2cccc(F)c2)[C@H]2[C@@H]1CC[C@@H]2C` [I-205] is lower in inhibition at 320 µM (stock): 33.6% for the first, 8.7% for the second.

Compared with `CNC(=O)O[C@@H]1OC=C(C(N)=O)[C@H]2C[C@@H]3O[C@]3(C)[C@@H]12` [I-61], `COC(=O)C1=COC[C@H]2[C@@H]1C[C@@H]1O[C@@]12C` [I-303] is lower in inhibition at 320 µM (stock): 82.1% for the first, 6.1% for the second.

First: CNC(=O)O[C@@H]1OC=C(C)[C@H]2CC[C@H](C)[C@@H]12 [I-278]
Second: COC(=O)C1=CO[C@@H](OC(=O)Nc2ccc(C)cc2)[C@H]2[C@@H]1CC[C@@H]2C [I-270]
The inhibition at 320 µM (stock) of the first is higher: 125% for the first, 28.7% for the second.

Going from `CCCCCCC1=CC[C@@H]2C(C(=O)OC)=CO[C@@H](OC(=O)NC)[C@H]12` [I-299] to `COC(=O)C1=CO[C@@H](OC(=O)NC(CO)CO)[C@@H]2C(C)=CC[C@H]12` [I-147], the inhibition at 320 µM (stock) rises from 5.9% to 41%.

Going from `COC(=O)C1=CO[C@@H](OC(=O)NCc2ccc3c(c2)OCO3)[C@H]2[C@@H]1CC[C@@H]2C` [I-234] to `COC(=O)C1=CO[C@@H](OC(=O)NCCc2ccccc2F)[C@H]2[C@@H]1CC[C@@H]2C` [I-185], the inhibition at 320 µM (stock) rises from 7.3% to 15.6%.

Compared with `COC(=O)C1=CO[C@@H](OC(=O)N(C)CCc2ccc(OC)c(OC)c2)[C@@H]2C(C)=CC[C@H]12` [I-122], `COC(=O)C1=CO[C@@H](OC(=O)NCc2ccc(F)cc2F)[C@@H]2C(C)=CC[C@H]12` [I-77] is lower in inhibition at 320 µM (stock): 10.3% for the first, 5.9% for the second.

First: COC(=O)C1=CO[C@@H](OC(=O)NCCCc2ccccc2)[C@H]2[C@@H]1CC[C@@H]2C [I-217]
Second: COC(=O)C1=CO[C@@H](OC(=O)Nc2ccc(OC)cc2)[C@H]2[C@@H]1CC[C@@H]2C [I-263]
The inhibition at 320 µM (stock) of the first is higher: 9.4% for the first, 7.2% for the second.
